Test results taken from US20180334447A1, “2,3,4,5-TETRAHYDROPYRIDIN-6-AMINE DERIVATIVES” (JANSSEN PHARMACEUTICA NV, priority 2015, published 2018).

What was measured:
[1] = biological target: T1, recombinant BACE1 protein (Homo sapiens, UniProt P56817); assay: BACE1 biochemical FRET based assay - Method 1; details: BACE1, 120 minutes at room temperature, pH 5.0; read-out: Biochemical FRET based assay - Method 1 pIC50 (converted)
T1 construct: recombinant BACE1 protein in a final concentration of 1 μg/ml
T1 sequence (P56817 46-501): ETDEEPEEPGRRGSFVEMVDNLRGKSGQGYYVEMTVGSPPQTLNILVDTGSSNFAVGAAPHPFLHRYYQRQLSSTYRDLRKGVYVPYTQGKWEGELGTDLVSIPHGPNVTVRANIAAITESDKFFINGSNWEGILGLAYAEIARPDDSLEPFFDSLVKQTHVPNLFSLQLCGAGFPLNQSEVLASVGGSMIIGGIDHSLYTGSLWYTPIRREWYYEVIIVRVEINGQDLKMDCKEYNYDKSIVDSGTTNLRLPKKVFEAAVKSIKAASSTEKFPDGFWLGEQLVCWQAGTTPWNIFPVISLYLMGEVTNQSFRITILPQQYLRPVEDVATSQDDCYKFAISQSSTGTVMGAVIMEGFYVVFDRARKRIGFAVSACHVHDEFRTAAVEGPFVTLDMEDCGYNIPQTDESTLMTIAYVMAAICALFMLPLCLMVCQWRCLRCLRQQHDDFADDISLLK
Text: (§1) This assay is a Fluorescence Resonance Energy Transfer Assay (FRET) based assay. The substrate for this assay is an APP derived 13 amino acids peptide that contains the ‘Swedish’ Lys-Met/Asn-Leu mutation of the amyloid precursor protein (APP) beta-secretase cleavage site. This substrate also contains two fluorophores: (7-methoxycoumarin-4-yl) acetic acid (Mca) is a fluorescent donor with excitation wavelength at 320 nm and emission at 405 nm and 2,4-Dinitrophenyl (Dnp) is a proprietary quencher acceptor. […] Upon cleavage by BACE1, the fluorophore Mca is separated from the quenching group Dnp, restoring the full fluorescence yield of the donor. The increase in fluorescence is linearly related to the rate of proteolysis.
Briefly in a 384-well format recombinant BACE1 protein in a final concentration of 1 μg/ml is incubated for 120 minutes at room temperature with 10 μm substrate in incubation buffer (40 mM Citrate buffer pH 5.0, 0.04% PEG, 4% DMSO) in the absence or presence of compound. Next the amount of proteolysis is directly measured by fluorescence measurement at T=0 and T=120 (excitation at 320 nm and emission at 405 nm). Results are expressed in RFU (Relative Fluorescence Units), as difference between T120 and T0.
(§2) A best-fit curve is fitted by a minimum sum of squares method to the plot of % Controlmin versus compound concentration. From this an IC50 value (inhibitory concentration causing 50% inhibition of activity) can be obtained.

[2] = system: Abeta 1-42 produced and secreted into the medium of human neuroblastoma SKNBE2 cells; assay: Cellular αLisa assay in SKNBE2 cells, Abeta 42; assay type: cell-based; details: SKNBE2 cells expressing hAPP695, incubated for 18 hours; for IC50: Homo sapiens, SKNBE2, 18 h, read-out: Cellular αLisa assay in SKNBE2 cells Abeta 42 pIC50 (converted)
Experimental: In two αLisa assays the levels of Abeta 1-42 produced and secreted into the medium of human neuroblastoma SKNBE2 cells are quantified. The assay is based on the human neuroblastoma SKNBE2 expressing the wild type Amyloid Precursor Protein (hAPP695). The compounds are diluted and added to these cells, incubated for 18 hours and then measurements of Abeta 1-42 are taken. Abeta 1-42 are measured by sandwich αLisa. αLisa is a sandwich assay using biotinylated antibody AbN/25 attached to streptavidin coated beads and antibody cAb42/26 conjugated acceptor beads for the detection of Abeta 1-42 respectively. In the presence of Abeta 1-42, the beads come into close proximity. The excitation of the donor beads provokes the release of singlet oxygen molecules that trigger a cascade of energy transfer in the acceptor beads, resulting in light emission. Light emission is measured after 1 hour incubation (excitation at […] and emission at 615 nm).
as §2

[3] = biological target: T2, recombinant BACE2 protein (Homo sapiens, UniProt Q9Y5Z0); assay: BACE2 biochemical FRET based assay; details: BACE2, 450 minutes at room temperature, pH 5.0; read-out: Biochemical FRET based assay pIC50 (converted)
T2 construct: recombinant BACE2 protein in a final concentration of 0.4 μg/ml
T2 sequence (Q9Y5Z0 63-518): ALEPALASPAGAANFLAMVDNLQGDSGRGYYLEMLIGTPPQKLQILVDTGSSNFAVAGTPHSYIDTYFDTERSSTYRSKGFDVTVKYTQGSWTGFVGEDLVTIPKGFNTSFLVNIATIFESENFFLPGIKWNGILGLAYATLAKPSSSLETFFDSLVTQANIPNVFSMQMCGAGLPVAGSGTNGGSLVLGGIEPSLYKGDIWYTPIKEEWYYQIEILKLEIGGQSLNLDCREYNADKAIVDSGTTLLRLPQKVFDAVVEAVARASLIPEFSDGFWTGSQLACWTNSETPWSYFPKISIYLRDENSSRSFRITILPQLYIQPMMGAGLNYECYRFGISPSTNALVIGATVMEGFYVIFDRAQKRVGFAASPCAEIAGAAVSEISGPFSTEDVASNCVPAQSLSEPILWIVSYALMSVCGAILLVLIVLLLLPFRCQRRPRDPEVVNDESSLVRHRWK
Text: as §1, with “assay” for “assay is an APP derived 13 amino acids peptide that”, “the beta-secretase,” for “BACE1,”
Briefly in a 384-well format recombinant BACE2 protein in a final concentration of 0.4 μg/ml is incubated for 450 minutes at room temperature with 10 μM substrate in incubation buffer (50 mM Citrate buffer pH 5.0, 0.05% PEG, no DMSO) in the absence or presence of compound. Next the amount of proteolysis is directly measured by fluorescence measurement at T=0 and T=450 (excitation at 320 nm and emission at 405 nm). Results are expressed in RFU (Relative Fluorescence Units), as difference between T450 and T0.
as §2

[4] = system: Abetatotal in human neuroblastoma SKNBE2 cells; assay: Cellular αLisa assay in SKNBE2 cells, Abetatotal; assay type: cell-based; details: SKNBE2 cells expressing hAPP695, incubated for 18 hours; for IC50: Homo sapiens, SKNBE2, 18 h, read-out: Cellular αLisa assay in SKNBE2 cells Abetatotal pIC50 (converted)
[5] = system: Abeta 1-37, Abeta 1-38, Abeta 1-40 and Abeta 1-42 in CSF; assay: Pharmacology in the Beagle dog: beta-amyloid profile in cerebrospinal fluid (CSF) after a single dose; assay type: in vivo
Experimental: Test compounds were tested to evaluate the effect on the beta-amyloid profile in cerebrospinal fluid (CSF) of dogs after a single dose, in combination with pharmacokinetic (PK) follow up and limited safety evaluation.
For each of compound 20, 21, 22 or 41, four beagle dogs (2 males, 2 females) were dosed with vehicle (1 ml/kg of an aqueous solution of 20% cyclodextrin) and 12 beagle dogs (2 males and 2 females per dosage group) were dosed with test compounds as follows:
In the case of compounds 39, 33 and 31, two beagle dogs (1 male, 1 female) were dosed with vehicle (1 ml/kg of an aqueous solution of 20% cyclodextrin) and 4 beagle dogs (2 males and 2 females) were dosed with test compound […] (0.31 mg/kg in 0.31 mg/ml of an aqueous 20% cyclodextrin solution) on an empty stomach.
Eight hours after dosing the animals got access to their regular meal for 30 minutes. Blood was taken for PK follow up (0.5, 1, 2, 4, 8, 25 and 49 hours) and serum samples for biochemistry were taken before and at 8 and 25 h after dosing. The CSF samples were used for measurement of Abeta 1-37, Abeta 1-38, Abeta 1-40 and Abeta 1-42.

[6] = Canis lupus familiaris, single dose 0.31 mg/kg, 8 h post dosing, read-out: % Decrease in Abeta 1-42 at 8 h post dosing compared to own baseline

SMILES	IC50 [1]	Cellular αLisa assay in SKNBE2 cells Abeta 42 pIC50 [2]	IC50 [3]	Cellular αLisa assay in SKNBE2 cells Abetatotal pIC50 [4]	inhibition in vivo at 0.31 mg/kg [5, 6]	IC50 [2]	melting point	IC50 [4]	inhibition in vivo at 0.16 mg/kg ([5]; Canis lupus familiaris, single dose 0.16 mg/kg, 8 h post dosing, read-out: % Decrease in Abeta 1-42 at 8 h post dosing compared to own baseline)	inhibition in vivo at 0.63 mg/kg ([5]; Canis lupus familiaris, single dose 0.63 mg/kg, 8 h post dosing, read-out: % Decrease in Abeta 1-42 at 8 h post dosing compared to own baseline)	inhibition in vivo at 1.25 mg/kg ([5]; Canis lupus familiaris, single dose 1.25 mg/kg, 8 h post dosing, read-out: % Decrease in Abeta 1-42 at 8 h post dosing compared to own baseline)	% Decrease in Abeta 1-42 at 24 h^(a) or 25 h^(b) post dosing compared to own baseline ([5]; single dose 0.16 mg/kg, 24 h post dosing (a))	% Decrease in Abeta 1-42 at 49 h post dosing compared to own baseline ([5]; single dose 0.63 mg/kg)	% Decrease in Abeta 1-42 at 49 h post dosing compared to own baseline ([5]; single dose 1.25 mg/kg)	% Decrease in Abeta 1-42 at 24 h^(a) or 25 h^(b) post dosing compared to own baseline ([5]; single dose 0.31 mg/kg, 25 h post dosing (b))
CC(C)S(=O)(=O)C1(C)CCC(CF)(c2cc(NC(=O)c3ccc(F)cn3)ccc2F)N=C1N (single isomer, unassigned) [Compound 33]	4.27 nM	8.32	3.55 nM	8.37	34%	–	–	–	–	–	–	–	–	–	–
COc1cnc(C(=O)Nc2ccc(F)c([C@]3(CF)CC[C@@](C)(S(C)(=O)=O)C(N)=N3)c2)cn1 [Compound 2]	2.29 nM	–	13.8 nM	–	56%	1.48 nM	122.96 °C	–	–	–	–	–	–	–	–
COc1cnc(C(=O)Nc2ccc(F)c([C@]3(C)CC[C@](C)(S(C)(=O)=O)C(N)=N3)c2)cn1 [Compound 9]	77.6 nM	–	513 nM	–	–	28.8 nM	214.97 °C	–	–	–	–	–	–	–	–
C[C@@]1(S(C)(=O)=O)CC[C@@](CF)(c2cc(NC(=O)c3ccc(F)cn3)ccc2F)N=C1N [Compound 20]	3.02 nM	–	3.02 nM	–	–	2.51 nM	–	2.57 nM	54%	75%	77%	44^(a) %	29%	65%	–
CCS(=O)(=O)C1(C)CCC(CF)(c2cc(NC(=O)c3ccc(F)cn3)ccc2F)N=C1N (stereo not shown) [Compound 31]	1.7 nM	–	2.63 nM	–	31%	1.91 nM	–	1.78 nM	–	–	–	–	–	–	–
CC1(S(C)(=O)=O)CCC(CF)(c2cc(NC(=O)c3cnc(OC(F)F)cn3)ccc2F)N=C1N (stereo not shown) [Compound 32]	1.05 nM	–	11.5 nM	–	76%	0.398 nM	–	0.309 nM	–	–	–	–	–	–	–
CC1(S(C)(=O)=O)CCC(CF)(c2cc(NC(=O)c3cnc(OCC(F)(F)F)cn3)ccc2F)N=C1N (stereo not shown) [Compound 39]	1.29 nM	–	25.1 nM	–	53%	1.38 nM	–	2.14 nM	–	–	–	–	–	–	44^(b) %
